Values quoted from earlier work in PMC3747139 (PLoS ONE, 2013).

Test system: telomerase
Design: method as in PMID 10741725
Conditions: cited from earlier work

## Cc1cn([C@H]2C[C@H](N=[N+]=[N-])[C@@H](CO)O2)c(=O)[nH]c1=O [Ligand L1, 1-(4-azido 5-(hydroxylmethyl)tetrahydrofuran-2-yl)-5-methyl pyrimidi-ne-2,4(1H,3H)-dione, reference compound]
  concentration reported to inhibit telomerase: around 200 µM
